Data as given in patent publication US20220354949A1, “NOVEL COMPOUNDS” (XENIOPRO GmbH, priority 2018, published 2022).

Test system: Notch signaling (human Notch1 receptor, hNotch1ΔE, CSL luciferase reporter in HeLa cells)
Test: Notch reporter assay (dual luciferase, HeLa cells transfected with hNotch1ΔE)
Type: cell-based
Conditions: compounds and controls at 10 μM
Excerpt: The activation level of Notch signaling can be quantified in vitro reliably by measuring the expression levels of Notch specific target genes. This can be accomplished by the quantification of corresponding mRNA or protein of a particular Notch target gene. Alternatively, cells can be genetically modified to carry a luciferase gene as an artificial Notch target gene, which is expressed in dependence of Notch activity. In this setting, Notch signaling levels can be quantified by measuring the luciferase-derived bioluminescence values.
An according Notch-reporter assay, i.e. a luciferase-based luminescence readout, was used here to quantify the ability of the claimed compounds to augment Notch signaling in a cellular system. […] After 24 hours of transfection, the transfected cells were carefully detached from the dish using 0.5 mM EDTA in PBS and seeded into 96-well plates suitable for luminescence readouts (CORNING, #3610) at 10′000 cells per well. […] Directly after the lysis, first the Firefly and then the Renilla luciferase values were measured consecutively from the same well with a luminescence reader immediately after applying 15 μL per well each of the corresponding enzyme substrates needed to create the luminescence signals (Promega, Dual-Luciferase® Reporter Assay System, #E1910). […]

Oc1ccc(C=Cc2cc(O)cc(O)c2)cc1 [RES, Resveratrol] was tested, and the “Activity Range: weighted arithmetic mean (AVEw) of double-normalized Notch-reporter luminescence, relative to DMSO basis level of 1.0” value was 1.9 ± 0.5.
